For seven compounds, TGI results are on record in PubChem BioAssay (NCI).

Test systems include DU-145 prostate; A549 NSCLC; CAKI-1 renal; HOP-62 NSCLC; MDA-N; MALME-3M melanoma; BT-549 breast; NCI-H522 lung; NCI-H226 lung; SR leukemia; HCT-15 colon; NCI-H460 lung; SNB-75 CNS; T-47D breast; MDA-MB-435; OVCAR-5 ovarian; HS 578T breast; K-562 leukemia; SF-539 CNS; SF-295 CNS.
What all share (test): DTP human tumour cell line panel, 48 h

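Cells were grown in 96-well plates and exposed to each compound for 48 hours at five concentrations; endpoints were interpolated linearly between bracketing concentrations, or set to the highest concentration if not reached. TGI is the concentration that stops growth completely.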

As usually defined, the TGI is the concentration at which net growth stops. For `COc1ccc(-n2c(Cn3nnc(-c4cccnc4)n3)nn(C3OC(COC(=O)c4ccccc4)C(OC(=O)c4ccccc4)C3OC(=O)c3ccccc3)c2=S)cc1` (stereo not given), the TGI in the experiment with DU-145 prostate, with A549 NSCLC, in the experiment with CAKI-1 renal, in the experiment with HOP-62 NSCLC, in the experiment with MDA-N and with MALME-3M melanoma was greater than 100 µM each time. The TGI in the experiment on BT-549 breast was greater than 100 µM; with NCI-H522 lung, greater than 100 µM; with NCI-H226 lung it was 36.1 µM; in the experiment on SR leukemia it was greater than 100 µM; with HCT-15 colon it was greater than 100 µM; in the experiment with NCI-H460 lung, greater than 100 µM. Moreover, the TGI in the experiment with SNB-75 CNS, in the experiment on T-47D breast, in the experiment on MDA-MB-435, in the experiment with OVCAR-5 ovarian, in the experiment on HS 578T breast and in the experiment on K-562 leukemia was greater than 100 µM each time. Also, the TGI with SF-539 CNS and with SF-295 CNS was greater than 100 µM each time.

As to `Nc1nc(Br)nc2ncn(C3CC(O)C(CO)O3)c12` (stereo not given), the TGI in the experiment on DU-145 prostate, with A549 NSCLC, with CAKI-1 renal, in the experiment with HOP-62 NSCLC, in the experiment with MDA-N and in the experiment on MALME-3M melanoma was greater than 100 µM each time. For the same compound, the TGI is greater than 100 µM with BT-549 breast; greater than 100 µM with NCI-H522 lung; greater than 100 µM in the experiment with NCI-H226 lung; greater than 81 µM with SR leukemia; greater than 100 µM with HCT-15 colon; greater than 100 µM in the experiment with NCI-H460 lung. In addition, the TGI with SNB-75 CNS, in the experiment on T-47D breast, in the experiment on MDA-MB-435, in the experiment on OVCAR-5 ovarian, in the experiment on HS 578T breast and in the experiment on K-562 leukemia was greater than 100 µM each time. Moreover, the TGI in the experiment on SF-539 CNS and in the experiment with SF-295 CNS was greater than 100 µM throughout.

As for `O=C1CCN2C(=N1)Sc1ccccc12`, the TGI with DU-145 prostate, with A549 NSCLC, in the experiment with CAKI-1 renal, with HOP-62 NSCLC, with MDA-N and in the experiment with MALME-3M melanoma was greater than 100 µM each time. Moreover, the TGI in the experiment with BT-549 breast, in the experiment on NCI-H522 lung, in the experiment with NCI-H226 lung, with SR leukemia, in the experiment on HCT-15 colon and in the experiment on NCI-H460 lung was greater than 100 µM each time. Further, the TGI in the experiment on SNB-75 CNS, in the experiment on T-47D breast, with MDA-MB-435, with OVCAR-5 ovarian, in the experiment on HS 578T breast and in the experiment with K-562 leukemia was greater than 100 µM throughout. Besides, the TGI in the experiment with SF-539 CNS and in the experiment with SF-295 CNS was greater than 100 µM each time.

`COc1ccc2c(c1)-c1nc(=O)n(CCCN(C)C)c3ccc([N+](=O)[O-])c(c13)N2`: the TGI in the experiment with DU-145 prostate is 17.1 µM; in the experiment on A549 NSCLC, 17 µM; in the experiment with CAKI-1 renal, 5.26 µM; in the experiment on HOP-62 NSCLC, 2.39 µM; with MDA-N, 19.2 µM; in the experiment with MALME-3M melanoma it was 3.28 µM. Besides, the total growth inhibition concentration (TGI) with BT-549 breast turned out to be 16.8 µM; in the experiment with NCI-H522 lung, 1.93 µM; in the experiment with NCI-H226 lung, 27.5 µM; in the experiment with SR leukemia it was 2.44 µM; in the experiment with HCT-15 colon it was 8.55 µM; with NCI-H460 lung, 15.1 µM. The TGI in the experiment on SNB-75 CNS was found to be 8.51 µM; in the experiment on T-47D breast, 32.2 µM; with MDA-MB-435, 32.2 µM; in the experiment with OVCAR-5 ovarian, 4.89 µM; with HS 578T breast, 4.99 µM; with K-562 leukemia, 0.235 µM. Moreover, the TGI in the experiment with SF-539 CNS turned out to be 9.63 µM; in the experiment on SF-295 CNS, 20.8 µM.

`Cc1c2ccccc2c(C2C3C(=O)N(c4cccc5ccccc45)C(=O)C3ON2Cc2ccc(CC(N)=O)cc2)c2ccccc12` (stereo not given): the TGI in the experiment with DU-145 prostate was greater than 50 µM; in the experiment on A549 NSCLC it was greater than 50 µM; in the experiment on CAKI-1 renal it was greater than 50 µM; with HOP-62 NSCLC it was greater than 50 µM; in the experiment on MDA-N, 35.6 µM; in the experiment on MALME-3M melanoma it was greater than 50 µM. The TGI in the experiment on BT-549 breast is greater than 50 µM; with NCI-H522 lung it was greater than 50 µM; in the experiment with NCI-H226 lung it was 46.5 µM; in the experiment on SR leukemia, 37.6 µM; in the experiment with HCT-15 colon it was greater than 50 µM; in the experiment on NCI-H460 lung, 48.6 µM. For the same compound, the TGI in the experiment on SNB-75 CNS is 43.5 µM; in the experiment with T-47D breast, greater than 50 µM; in the experiment with MDA-MB-435 it was greater than 50 µM; with OVCAR-5 ovarian, greater than 50 µM; in the experiment with HS 578T breast, greater than 50 µM; in the experiment with K-562 leukemia, greater than 50 µM. Further, the TGI in the experiment with SF-539 CNS and in the experiment with SF-295 CNS was greater than 50 µM each time.

On to `COC(=O)c1ccc(C)cc1C1CN=NC12Cc1cc(C)ccc1C2=O` (stereo not given), for which the TGI was 97.6 µM with DU-145 prostate; greater than 100 µM in the experiment with A549 NSCLC; 97.3 µM in the experiment on CAKI-1 renal; greater than 100 µM in the experiment with HOP-62 NSCLC; 6.11 µM in the experiment on MDA-N; greater than 100 µM in the experiment on MALME-3M melanoma. For the same compound, the total growth inhibition concentration (TGI) with BT-549 breast is greater than 85.7 µM; in the experiment with NCI-H522 lung, 26.8 µM; with NCI-H226 lung it was 88 µM; in the experiment on SR leukemia, 32.2 µM; with HCT-15 colon it was greater than 100 µM; in the experiment with NCI-H460 lung, greater than 65.4 µM. Also, the TGI in the experiment with SNB-75 CNS was greater than 68.1 µM; in the experiment on T-47D breast, greater than 100 µM; with MDA-MB-435 it was 6.12 µM; with OVCAR-5 ovarian it was greater than 100 µM; in the experiment on HS 578T breast, 41.3 µM; in the experiment on K-562 leukemia, greater than 68.1 µM. The results for the TGI in the experiment on SF-539 CNS and in the experiment on SF-295 CNS were 36.2 µM and greater than 77.2 µM, respectively.

Regarding `C=CC(OC(=O)C(C)C)c1ccc(OC(=O)C(C)C)cc1` (stereo not given), the TGI in the experiment with DU-145 prostate is greater than 100 µM; in the experiment on A549 NSCLC, 36.9 µM; with CAKI-1 renal it was 10.2 µM; in the experiment on HOP-62 NSCLC it was 22.6 µM; in the experiment on MDA-N, 25.9 µM; with MALME-3M melanoma, 22 µM. In addition, the TGI in the experiment on BT-549 breast is 31.2 µM; in the experiment with NCI-H522 lung it was 3.56 µM; with NCI-H226 lung, 39 µM; with SR leukemia, greater than 100 µM; in the experiment with HCT-15 colon, 20.2 µM; in the experiment with NCI-H460 lung it was 30.9 µM. Also, the TGI was 28.6 µM in the experiment on SNB-75 CNS; 69.8 µM in the experiment on T-47D breast; 26.4 µM with MDA-MB-435; 20.2 µM in the experiment with OVCAR-5 ovarian; greater than 100 µM in the experiment on HS 578T breast; 66.6 µM in the experiment on K-562 leukemia. Besides, the TGI in the experiment with SF-539 CNS was determined as 30.7 µM; with SF-295 CNS it was 29.1 µM.
